# Experimental data reported in patent US20250136606A1, “MODULATORS OF TRPML, THEIR COMPOSITIONS AND METHODS OF USE” (Caraway Therapeutics, Inc., priority 2021, published 2025).
# How the values were obtained:
# Assay type in all cases: cell-based
# Settings in all cases: fluorescent calcium assay
# TRPML2 = target: T1, TRPML2 (Homo sapiens, UniProt Q8IZK6); assay: Fluorescent TRPML2 assay (performed as for TRPML1, substituting the TRPML2 subtype)
# T1 construct: expressed in transfected cells
# T1 sequence (Q8IZK6 1-566): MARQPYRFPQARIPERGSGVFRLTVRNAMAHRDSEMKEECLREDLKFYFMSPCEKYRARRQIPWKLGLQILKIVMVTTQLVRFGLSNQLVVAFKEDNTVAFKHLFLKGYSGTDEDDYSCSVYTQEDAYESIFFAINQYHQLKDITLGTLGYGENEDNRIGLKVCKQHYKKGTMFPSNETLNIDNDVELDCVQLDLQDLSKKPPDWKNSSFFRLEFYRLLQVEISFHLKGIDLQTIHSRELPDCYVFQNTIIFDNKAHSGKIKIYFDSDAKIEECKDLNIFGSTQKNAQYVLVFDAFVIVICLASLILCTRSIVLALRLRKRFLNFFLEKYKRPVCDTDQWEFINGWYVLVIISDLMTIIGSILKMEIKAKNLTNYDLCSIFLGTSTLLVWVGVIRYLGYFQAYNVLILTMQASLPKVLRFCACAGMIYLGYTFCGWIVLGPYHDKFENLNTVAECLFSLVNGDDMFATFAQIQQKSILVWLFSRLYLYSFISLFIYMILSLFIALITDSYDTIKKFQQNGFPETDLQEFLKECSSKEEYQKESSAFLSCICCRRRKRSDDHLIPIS
# Summary of the method: (§1)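 Agonist activity is scored as percent of plate controls from Fluo4 fluorescence after dye-loaded, doxycycline-induced HEK-293 Trex cells meet compound in high-calcium (10 mM) Ringer's. Compounds run in half-log dilutions from 20 micromolar final, in triplicate.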
# TRPML1 = TRPML1 (Homo sapiens, UniProt Q9GZU1); assay: Fluorescent TRPML1 assay (Fluo4-AM calcium fluorescence in doxycycline-induced HEK-293 Trex cells)
# Summary of the method: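 HEK-293 Trex cells stably expressing surface-directed mutant human TRPML1, induced with 0.5 µg/mL doxycycline overnight, were loaded with 1 µM Fluo4-AM and added to compound (6 nM–20 µM final, half-log steps, triplicate) in Ringer's with 10 mM calcium. Fluorescence ex 480/em 540; EC50 by non-linear regression versus plate controls.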
# TRPML3 = target: T2, TRPML3 (Homo sapiens, UniProt Q8TDD5); assay: Fluorescent TRPML3 assay (performed as for TRPML1, substituting the TRPML3 subtype)
# T2 construct: expressed in transfected cells
# T2 sequence (Q8TDD5 1-553): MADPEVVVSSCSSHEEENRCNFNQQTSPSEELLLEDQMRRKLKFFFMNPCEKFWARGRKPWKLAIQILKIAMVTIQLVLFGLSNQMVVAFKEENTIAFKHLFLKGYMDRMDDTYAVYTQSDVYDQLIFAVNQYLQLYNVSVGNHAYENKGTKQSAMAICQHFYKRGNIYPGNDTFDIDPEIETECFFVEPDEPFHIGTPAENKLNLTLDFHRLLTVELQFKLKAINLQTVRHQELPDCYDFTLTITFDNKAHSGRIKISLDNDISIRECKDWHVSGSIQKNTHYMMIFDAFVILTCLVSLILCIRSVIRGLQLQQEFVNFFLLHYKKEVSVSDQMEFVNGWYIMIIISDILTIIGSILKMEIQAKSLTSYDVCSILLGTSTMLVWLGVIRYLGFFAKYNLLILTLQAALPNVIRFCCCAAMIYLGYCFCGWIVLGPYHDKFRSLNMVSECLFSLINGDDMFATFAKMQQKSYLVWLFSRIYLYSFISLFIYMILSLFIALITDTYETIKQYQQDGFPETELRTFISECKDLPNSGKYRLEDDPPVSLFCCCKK
# Summary of the method: as §1
# Sequence of TRPML1 (Q9GZU1 whole entry L15A/L16A/L577A/L578A, form open): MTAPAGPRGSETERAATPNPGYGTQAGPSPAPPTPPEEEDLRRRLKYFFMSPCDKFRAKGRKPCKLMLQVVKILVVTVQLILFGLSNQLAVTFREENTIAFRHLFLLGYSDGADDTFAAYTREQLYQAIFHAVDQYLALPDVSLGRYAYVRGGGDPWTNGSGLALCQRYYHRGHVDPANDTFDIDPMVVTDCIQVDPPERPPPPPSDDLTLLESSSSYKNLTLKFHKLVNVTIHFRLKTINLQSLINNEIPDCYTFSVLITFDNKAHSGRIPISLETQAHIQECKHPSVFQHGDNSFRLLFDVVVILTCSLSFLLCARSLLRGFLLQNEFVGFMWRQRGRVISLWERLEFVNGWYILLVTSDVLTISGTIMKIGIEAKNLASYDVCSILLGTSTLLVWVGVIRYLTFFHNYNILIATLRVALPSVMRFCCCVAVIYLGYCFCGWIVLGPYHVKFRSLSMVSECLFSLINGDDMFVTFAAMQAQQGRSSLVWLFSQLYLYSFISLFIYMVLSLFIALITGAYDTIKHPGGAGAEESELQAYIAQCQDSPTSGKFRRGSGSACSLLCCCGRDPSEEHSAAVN
SMILES,EC50 (TRPML2) [µM],EC50 (TRPML1) [µM],EC50 (TRPML3) [µM]
"C[C@H]1CN(C(=O)OC(C)(C)C)CCN1c1ncnc2c1c(-c1cccnc1)cn2-c1cccc(Cl)c1 [Compound 225, tert-butyl (S)-4-(7-(3-chlorophenyl)-5-(pyridin-3-yl)-7H-pyrrolo[2,3-d]pyrimidin-4-yl)-3-methylpiperazine-1-carboxylate]",0.1 to 0.5,< 0.1,< 0.1
"C[C@H]1CN(C(=O)OC(C)(C)C)CCN1c1ncnc2c1c(-c1cccnc1)cn2-c1cccc(F)c1 [Compound 226, tert-butyl (S)-4-(7-(3-fluorophenyl)-5-(pyridin-3-yl)-7H-pyrrolo[2,3-d]pyrimidin-4-yl)-3-methylpiperazine-1-carboxylate]",0.5 to 2,0.1 to 0.5,0.1 to 0.5
"C[C@@H]1CN(C(=O)OC(C)(C)C)CCN1c1ncnc2c1c(N1CCOCC1)cn2-c1cccc(Cl)c1 [Compound 229, tert-Butyl (R)-4-(7-(3-chlorophenyl)-5-morpholino-7H-pyrrolo[2,3-d]pyrimidin-4-yl)-3-methylpiperazine-1-carboxylate]",0.5 to 2,0.5 to 2,0.1 to 0.5
"C[C@H]1CN(C(=O)OC(C)(C)C)CCN1c1ncnc2c1c(-c1ccccc1F)cn2-c1ccccn1 [Compound 231, tert-butyl (S)-4-(5-(2-fluorophenyl)-7-(pyridin-2-yl)-7H-pyrrolo[2,3-d]pyrimidin-4-yl)-3-methylpiperazine-1-carboxylate]",0.1 to 0.5,< 0.1,< 0.1
"C[C@@H]1CN(c2ncnc3c2c(-c2cnccn2)cn3-c2cc(F)cc(F)c2)CCN1C(=O)OC(C)(C)C [Compound 233, tert-butyl (R)-4-(7-(3,5-difluorophenyl)-5-(pyrazin-2-yl)-7H-pyrrolo[2,3-d]pyrimidin-4-yl)-2-methylpiperazine-1-carboxylate]",0.5 to 2,0.5 to 2,0.1 to 0.5
"C[C@@H]1CN(c2ncnc3c2c(-c2ccncc2)cn3-c2cc(F)cc(Cl)c2)CCN1C(=O)OC(C)(C)C [Compound 238, tert-butyl (R)-4-(7-(3-chloro-5-fluorophenyl)-5-(pyridin-4-yl)-7H-pyrrolo[2,3-d]pyrimidin-4-yl)-2-methylpiperazine-1-carboxylate]",0.5 to 2,< 0.1,0.1 to 0.5
"Cc1nccnc1-c1cn(-c2cc(F)cc(F)c2)c2ncnc(N3CCN(C(=O)OC(C)(C)C)[C@H](C)C3)c12 [Compound 242, tert-butyl (R)-4-(7-(3,5-difluorophenyl)-5-(3-methylpyrazin-2-yl)-7H-pyrrolo[2,3-d]pyrimidin-4-yl)-2-methylpiperazine-1-carboxylate]",0.1 to 0.5,0.1 to 0.5,0.1 to 0.5
"Cc1nccnc1-c1cn(-c2cc(F)cc(F)c2)c2ncnc(N3CCN(C(=O)OC(C)(C)C(F)(F)F)[C@H](C)C3)c12 [Compound 243, 1,1,1-trifluoro-2-methylpropan-2-yl (R)-4-(7-(3,5-difluorophenyl)-5-(3-methylpyrazin-2-yl)-7H-pyrrolo[2,3-d]pyrimidin-4-yl)-2-methylpiperazine-1-carboxylate]",0.5 to 2,0.1 to 0.5,0.1 to 0.5

# Other lines, results leading:
EC50 (TRPML2) [µM],EC50 (TRPML1) [µM],EC50 (TRPML3) [µM],SMILES
0.1 to 0.5,< 0.1,< 0.1,"C[C@@H]1CN(c2ncnc3c2c(C2CC2)cn3-c2cc(Cl)ccc2F)CCN1C(=O)OC(C)(C)C [Compound 224, tert-butyl (R)-4-(7-(5-chloro-2-fluorophenyl)-5-cyclopropyl-7H-pyrrolo[2,3-d]pyrimidin-4-yl)-2-methylpiperazine-1-carboxylate]"
0.5 to 2,0.1 to 0.5,0.1 to 0.5,"C[C@H]1CN(C(=O)OC(C)(C)C)CCN1c1ncnc2c1c(N1CCOCC1)cn2-c1cc(F)cc(F)c1 [Compound 228, tert-Butyl (S)-4-(7-(3,5-difluorophenyl)-5-morpholino-7H-pyrrolo[2,3-d]pyrimidin-4-yl)-3-methylpiperazine-1-carboxylate]"
0.1 to 0.5,0.1 to 0.5,< 0.1,"C[C@H]1CN(C(=O)OC(C)(C)C)CCN1c1ncnc2c1c(N1CCOCC1)cn2-c1cccc(Cl)c1 [Compound 230, tert-Butyl (S)-4-(7-(3-chlorophenyl)-5-morpholino-7H-pyrrolo[2,3-d]pyrimidin-4-yl)-3-methylpiperazine-1-carboxylate]"
0.5 to 2,< 0.1,< 0.1,"C[C@@H]1CN(c2ncnc3c2c(C2CC2)cn3-c2cc(F)cc(F)c2)[C@@H](C)CN1C(=O)OC(C)(C)C [Compound 232, tert-butyl (2R,5S)-4-(5-cyclopropyl-7-(3,5-difluorophenyl)-7H-pyrrolo[2,3-d]pyrimidin-4-yl)-2,5-dimethylpiperazine-1-carboxylate]"
0.5 to 2,0.1 to 0.5,0.1 to 0.5,"CC(C)(C)OC(=O)N1CCN(c2ncnc3c2c(C2CC2)cn3-c2cc(F)c(F)c(F)c2)CC1 [Compound 234, tert-butyl 4-(5-cyclopropyl-7-(3,4,5-trifluorophenyl)-7H-pyrrolo[2,3-d]pyrimidin-4-yl)piperazine-1-carboxylate]"
0.1 to 0.5,0.1 to 0.5,0.1 to 0.5,"C[C@H]1CN(C(=O)OC(C)(C)C)CCN1c1ncnc2c1c(-c1ccccn1)cn2-c1cc(F)cc(F)c1 [Compound 235, tert-butyl-(S)-4-(7-(3,5-difluorophenyl)-5-(pyridin-2-yl)-7H-pyrrolo[2,3-d]pyrimidin-4-yl)-3-methylpiperazine-1-carboxylate]"
0.1 to 0.5,< 0.1,< 0.1,"C[C@@H]1CN(c2ncnc3c2c(C2CC2)cn3-c2cc(F)cc(Cl)c2)[C@@H](C)CN1C(=O)OC(C)(C)C [Compound 236, tert-butyl (2R,5S)-4-(7-(3-chloro-5-fluorophenyl)-5-cyclopropyl-7H-pyrrolo[2,3-d]pyrimidin-4-yl)-2,5-dimethylpiperazine-1-carboxylate]"
0.5 to 2,0.5 to 2,0.1 to 0.5,"C[C@H]1CN(C(=O)OC(C)(C)C)CCN1c1ncnc2c1c(-c1cnccn1)cn2-c1cc(F)cc(F)c1 [Compound 237, tert-butyl-(S)-4-(7-(3,5-difluorophenyl)-5-(pyrazin-2-yl)-7H-pyrrolo[2,3-d]pyrimidin-4-yl)-3-methylpiperazine-1-carboxylate]"
0.5 to 2,< 0.1,< 0.1,"C[C@@H]1CN(c2ncnc3c2c(C2CC2)nn3-c2cc(F)cc(F)c2)CCN1C(=O)OC(C)(C)C [Compound 239, tert-butyl (R)-4-(3-cyclopropyl-1-(3,5-difluorophenyl)-1H-pyrazolo[3,4-d]pyrimidin-4-yl)-2-methylpiperazine-1-carboxylate]"
0.5 to 2,0.1 to 0.5,0.1 to 0.5,"C[C@H]1CN(c2ncnc3c2c(C2CC2)nn3-c2cc(F)cc(F)c2)CCN1C(=O)OC(C)(C)C [Compound 240, tert-Butyl (S)-4-(3-cyclopropyl-1-(3,5-difluorophenyl)-1H-pyrazolo[3,4-d]pyrimidin-4-yl)-2-methylpiperazine-1-carboxylate]"
0.5 to 2,0.1 to 0.5,0.1 to 0.5,"C[C@H]1CN(C(=O)OC(C)(C)C)CCN1c1ncnc2c1c(-c1ccncc1)cn2-c1cc(F)cc(F)c1 [Compound 241, tert-butyl-(S)-4-(7-(3,5-difluorophenyl)-5-(pyridin-4-yl)-7H-pyrrolo[2,3-d]pyrimidin-4-yl)-3-methylpiperazine-1-carboxylate]"
0.5 to 2,0.1 to 0.5,0.1 to 0.5,"C[C@@H]1CN(c2ncnc3c2c(N2CCCC2)cn3-c2cc(F)cc(F)c2)CCN1C(=O)OC(C)(C)C [Compound 245, tert-butyl (R)-4-(7-(3,5-difluorophenyl)-5-(pyrrolidin-1-yl)-7H-pyrrolo[2,3-d]pyrimidin-4-yl)-2-methylpiperazine-1-carboxylate]"
